Reference: ChEMBL document CHEMBL1132525, “Indolocarbazole poisons of human topoisomerase I: regioisomeric analogues of ED-110” (Bioorg Med Chem Lett, 1999)

Key:
DNA topoisomerase 1 = molecular target: T1, DNA topoisomerase 1 (Homo sapiens, UniProt P11387); assay: Concentration required to inhibit human DNA topoisomerase I (Topo I)
T1 sequence (P11387 whole entry): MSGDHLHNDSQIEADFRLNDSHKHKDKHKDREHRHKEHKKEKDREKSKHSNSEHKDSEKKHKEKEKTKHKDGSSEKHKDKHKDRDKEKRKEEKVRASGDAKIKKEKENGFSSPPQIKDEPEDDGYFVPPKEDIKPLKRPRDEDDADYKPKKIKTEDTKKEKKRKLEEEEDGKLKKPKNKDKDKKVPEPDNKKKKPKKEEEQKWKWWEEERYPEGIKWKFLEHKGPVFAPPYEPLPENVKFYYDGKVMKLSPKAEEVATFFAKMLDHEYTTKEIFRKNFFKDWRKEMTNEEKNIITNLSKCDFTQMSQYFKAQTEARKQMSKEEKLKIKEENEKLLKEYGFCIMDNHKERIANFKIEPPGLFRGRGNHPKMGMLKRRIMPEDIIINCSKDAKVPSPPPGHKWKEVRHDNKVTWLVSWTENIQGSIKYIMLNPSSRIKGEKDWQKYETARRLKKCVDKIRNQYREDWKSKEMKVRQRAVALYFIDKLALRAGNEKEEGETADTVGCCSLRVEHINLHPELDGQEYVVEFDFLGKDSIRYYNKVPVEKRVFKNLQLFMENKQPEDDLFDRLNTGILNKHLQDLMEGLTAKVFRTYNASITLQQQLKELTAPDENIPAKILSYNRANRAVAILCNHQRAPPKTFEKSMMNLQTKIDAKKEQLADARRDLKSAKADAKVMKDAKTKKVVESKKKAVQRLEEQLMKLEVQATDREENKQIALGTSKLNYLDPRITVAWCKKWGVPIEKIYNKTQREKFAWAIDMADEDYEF

HT-29 [1] = assay: In vitro antitumor activity against human solid tumor colon cell line HT-29; type: functional, cell-based
OVCAR-3 [2] = assay: In vitro antitumor activity against human solid tumor ovarian cell line OVCAR-3; type: functional, cell-based
DU-145 [3] = assay: In vitro antitumor activity against human solid tumor prostate cell line DU-145; type: functional, cell-based
HT-29 [4] = assay: In vitro antitumor activity against human solid tumor colon cell line HT-29; No active; type: functional, cell-based
DU-145 [5] = assay: In vitro antitumor activity against human solid tumor prostate cell line DU-145; No active; type: functional, cell-based
OVCAR-3 [6] = assay: In vitro antitumor activity against human solid tumor ovarian cell line OVCAR-3; No active; type: functional, cell-based

O=C1NC(=O)c2c1c1c3ccc(O)cc3[nH]c1c1c2c2ccc(O)cc2n1C1OC(CO)C(O)C(O)C1O (centres undefined)
IC50 (DNA topoisomerase 1): 2300 nM
IC50 (HT-29 [1]): 9700 nM
IC50 (OVCAR-3 [2]): 190 nM
IC50 (DU-145 [3]): 120 nM

O=C1NC(=O)c2c1c1c([nH]c3cccc(O)c31)c1c2c2c(O)cccc2n1C1OC(CO)C(O)C(O)C1O (centres undefined)
IC50 (DNA topoisomerase 1): 36000 nM
IC50 (HT-29 [1]): 1300 nM
IC50 (OVCAR-3 [2]): 440 nM
IC50 (DU-145 [3]): 950 nM

O=C1NC(=O)C(c2cn(C3OC(CO)C(O)C(O)C3O)c3c(O)cccc23)=C1c1c[nH]c2c(O)cccc12 (centres undefined)
IC50 (HT-29 [4]): Not Active
IC50 (DU-145 [5]): Not Active
IC50 (OVCAR-3 [6]): Not Active

O=C1NC(=O)c2c1c1c3cccc(O)c3[nH]c1c1c2c2cccc(O)c2n1C1OC(CO)C(O)C(O)C1O (centres undefined)
IC50 (DNA topoisomerase 1): 13000 nM
IC50 (HT-29 [1]): > 10000 nM
IC50 (OVCAR-3 [2]): 920 nM
IC50 (DU-145 [3]): 2300 nM

O=C1NC(=O)c2c1c1c3cc(O)ccc3[nH]c1c1c2c2cc(O)ccc2n1C1OC(CO)C(O)C(O)C1O (centres undefined)
IC50 (DNA topoisomerase 1): 1500 nM
IC50 (HT-29 [1]): 840 nM
IC50 (OVCAR-3 [2]): 190 nM
IC50 (DU-145 [3]): 67 nM
